In US7407960B2, “Substituted heterocyclic compounds” (CV Therapeutics, Inc., priority 2002, dated 2008):
pIC50: −log10 of the molar value.

Tested on: Palmitoyl CoA oxidation
Assay: Palmitoyl CoA oxidation in isolated rat heart mitochondria
Format: biochemical
Conditions: 1-C14 palmitoyl CoA, 15 min at 30° C., read-out: PalmCoA IC50
Description: Rat heart mitochondria were isolated by the method of Nedergard and Cannon (Methods in Enzymol. 55, 3, 1979).
Palmitoyl CoA oxidation—The Palmityl CoA oxidation was carried out in a total volume of 100 micro liters containing the following agents: 110 mM KCl, 33 mM Tris buffer at pH 8, 2 mM KPi, 2 mM MgCl2, 0.1 mM EDTA, 14.7 microM defatted BSA, 0.5 mM malic acid, 13 mM carnitine, 1 mM ADP, 52 micrograms of mitochondrial protein, and 16 microM 1-C14 palmitoyl CoA (Sp. Activity 60 mCi/mmole; 20 microCi/ml, using 5 microliters per assay). The compounds of this invention were added in a DMSO solution at the following concentrations: 100 micro molar, 30 micro molar, and 3 micro molar. In each assay, a DMSO control was used. After 15 min at 30° C., the enzymatic reaction was centrifuged (20,000 g for 1 min), and 70 microliters of the supernatant was added to an activated reverse phase silicic acid column (approximately 0.5 ml of silicic acid). The column was eluted with 2 ml of water, and 0.5 ml of the eluent was used for scintillation counting to determine the amount of C^14 trapped as C^14 bicarbonate ion.

With `Cc1nc2cc(OC[C@H](O)CN3CCN(CC(=O)Nc4cccc5c4CCC5)CC3)ccc2s1` [2-{4-[(2R)-2-hydroxy-3-(2-methylbenzothiazol-5-yloxy)propyl]piperazinyl}-N-indan-4-ylacetamide] the pIC50 was 6.82.
